Assay results: patent US6380169B1, “Metal complex containing oligonucleoside cleavage compounds and therapies” (ISIS Pharmaceuticals, Inc., priority 1994, dated 2002)

System: 5′-capped RNA transcript (SEQ ID NO:1)
Test: Cleavage of 3′-end-labeled, 5′-capped RNA by Eu[THED]^3+ (single strand or hybridized to complementary 18-mer DNA oligomer)
Type: biochemical
Settings: 1 mM Eu[THED]^3+
Procedure: In particular, the ability of Eu[THED]^3+ to hydrolyze 5′-capped RNA was established using a 3′-radiolabeled, 5′-capped RNA transcript.
A target oligonucleotide transcript having the following sequence was used (SEQ ID NO:1):
5′-capped RNA was made from the above amplicon using a T7 MEGAshortscript™ transcription kit (Ambion). 5′-capped transcripts were synthesized in a 20 μL reaction volume containing transcription buffer, T7 RNA polymerase, 7.5 mM rNTPs (except rGTP), 1.9 mM rGTP, 7.5 mM ^7MeGpppG and 200 nM DNA amplicon template. For synthesis of uncapped RNA, the capping dinucleotide was omitted from the reaction and rGTP concentration was increased to 7.5 mM. Reaction mixtures were incubated four hours at 37° C. After the transcription reaction was complete, template DNA was digested with 1 U DNase for 15 minutes at 37° C. Transcripts were purified from unincorporated nucleotides and truncated message by PAGE. The transcripts were visualized by UV back shadowing, and the RNA in the excised gel bands was purified using an RNaid™ kit (Bio 101) which is designed specifically for purification of RNA from polyacrylamide gels. As expected, the product of the 5′-capped RNA reaction contained a band that ran one base slower than the uncapped transcript on a 15% gel.
Transcripts were 3′ end-labeled with ^32p cordycepin triphosphate using terminal transferase. This enzyme prefers DNA as a substrate, but limited labeling of RNA can be achieved with the use of Co^++. As expected, 3′-end-labeling occurred, but the extent of labeling was low.
After preparing 3′-end-labeled, 5′-capped RNA, the ability of Eu[THED]^3+ to cleave (or “decapitate”) the cap structure of the RNA was tested. The reaction conditions were as follows: 1 mM Eu[THED]^3+, 75 μM capped RNA target (˜3 mM with respect to phosphate bonds), 20 mM Tris-HCl, pH 7.0, 100 mM NaCl and 0.2% SDS. A second set of samples further contained 100 μM of an 18-mer DNA oligomer which was complementary to the sequence immediately adjacent to the 5′-cap. […]

[1] = Hybrid (100 μM 18-mer DNA), time 0 min
[2] = Hybrid (100 μM 18-mer DNA), time 15 min
[3] = Hybrid (100 μM 18-mer DNA), time 30 min
[4] = Hybrid (100 μM 18-mer DNA), time 60 min
[5] = Hybrid (100 μM 18-mer DNA), time 120 min
[6] = Hybrid (100 μM 18-mer DNA), time 180 min

## europium (III) complex of 1,4,7,10-tetrakis (2-hydroxyethyl)-1,4,7,10-tetraazacyclododecane [Eu[THED]]
[1]
  Capped RNA counts/area: 3975 counts/area
  Decapitated RNA counts/area: 1031 counts/area
[2]
  Capped RNA counts/area: 4073 counts/area
  Decapitated RNA counts/area: 923 counts/area
[3]
  Capped RNA counts/area: 4070 counts/area
  Decapitated RNA counts/area: 1073 counts/area
[4]
  Capped RNA counts/area: 3315 counts/area
  Decapitated RNA counts/area: 1583 counts/area
[5]
  Capped RNA counts/area: 3509 counts/area
  Decapitated RNA counts/area: 1946 counts/area
[6]
  Capped RNA counts/area: 2658 counts/area
  Decapitated RNA counts/area: 1934 counts/area
Either data set (ssRNA and hybrid), 75 μM capped RNA
  backbone cleavage of RNA: no evidence of backbone cleavage
ssRNA, time 0 min
  Capped RNA counts/area: 3266 counts/area
  Decapitated RNA counts/area: 1130 counts/area
ssRNA, time 30 min
  Capped RNA counts/area: 3481 counts/area
  Decapitated RNA counts/area: 1736 counts/area
ssRNA, time 120 min
  Capped RNA counts/area: 2232 counts/area
  Decapitated RNA counts/area: 2195 counts/area
ssRNA, time 180 min
  Capped RNA counts/area: 1982 counts/area
  Decapitated RNA counts/area: 1949 counts/area
